Measurements reported in the supplement of paper PMC7455731.

Test: collision cross section (DTIM-MS, N2); higher = larger ion
Method: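 Collision cross section (CCS) of drug and natural-product chemical standards (validation set 2, measured in this paper). Three independent measurements were made across 2 months; the value taken is their mean (avg_ccs), for the ion adduct given.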

Row | SMILES | collision cross section (ion adduct: [M+H]+) | collision cross section (ion adduct: [M-H]-)
1 | c1ccc2c(c1)Nc1ccccc1S2 [Phenothiazine] | – | 140.54 Å²
2 | O=C(CCc1ccc(O)cc1)c1c(O)cc(O)cc1O[C@@H]1O[C@H](CO)[C@@H](O)[C@H](O)[C@H]1O [Phlorizin] | – | 193.11 Å²
3 | C[C@@H]1C/C=C/C=C/C=C/C=C/[C@H](O[C@@H]2O[C@H](C)[C@@H](O)[C@H](N)[C@@H]2O)C[C@@H]2O[C@](O)(C[C@@H](O)C[C@H]3O[C@@H]3/C=C/C(=O)O1)C[C@H](O)[C@H]2C(=O)O [Pimaricin] | 261.06 Å² | 262.32 Å²
4 | O=C1C[C@@H](c2ccccc2)Oc2cc(O)cc(O)c21 [Pinocembrin] | 157.96 Å² | 159.74 Å²
5 | COc1cc(O)cc(/C=C/c2ccc(O)cc2)c1 [Pinostilbene] | 160.07 Å² | 166.26 Å²
6 | CO[C@H]1C=CO[C@@]2(C)Oc3c(C)c(O)c4c(O)c(c(/C=N/N5CCN(C)CC5)c(O)c4c3C2=O)NC(=O)/C(C)=C\C=C/[C@H](C)[C@H](O)[C@@H](C)[C@@H](O)[C@@H](C)[C@H](OC(C)=O)[C@@H]1C [Rifampicin] | 284.23 Å² | 284.94 Å²
7 | C=C(C)[C@H]1Cc2c(ccc3c2O[C@@H]2COc4cc(OC)c(OC)cc4[C@@H]2C3=O)O1 [Rotenone] | 195.49 Å² | 198.71 Å²
8 | NC(=O)c1ccccc1O [Salicylamide] | 124.71 Å² | 122.43 Å²
9 | O=C(O)c1ccccc1O [Salicylic acid] | – | 121.24 Å²
10 | C=C[C@](C)(O)CC[C@@H]1[C@@]2(C)CCCC(C)(C)[C@@H]2CC[C@@]1(C)O [Sclareol] | – | 178.93 Å²
11 | COc1cc([C@H]2Oc3cc([C@H]4Oc5cc(O)cc(O)c5C(=O)[C@@H]4O)ccc3O[C@@H]2CO)ccc1O [Silybin] | 208.54 Å² | 204.63 Å²
12 | CCC(C)(C)C(=O)O[C@H]1C[C@@H](C)C=C2C=C[C@H](C)[C@H](CC[C@@H]3C[C@@H](O)CC(=O)O3)[C@H]21 [Simvastatin] | 207.6 Å² | 205.74 Å²
13 | COc1cc2oc(-c3ccc(O)cc3)cc(=O)c2c(O)c1C1OC(CO)C(O)C(O)C1OC1OC(CO)C(O)C(O)C1O (centres undefined) [Spinosin] | 235.99 Å² | 239.41 Å²
14 | Cc1noc(NS(=O)(=O)c2ccc(N)cc2)c1C [Sulfisoxazole] | 162.69 Å² | 162.87 Å²
15 | O=c1[nH]c(=O)n(C2CCCO2)cc1F (centres undefined) [Tegafur] | – | 142.34 Å²
16 | COc1cc(CCC(=O)CC(=O)CCc2ccc(O)c(OC)c2)ccc1O [Tetrahydrocurcumin] | – | 185.55 Å²
17 | Nc1nc(=S)c2[nH]cnc2[nH]1 [Thioguanine] | 132.57 Å² | 128.86 Å²
18 | NC[C@H]1O[C@H](O[C@H]2[C@H](O)[C@@H](O[C@H]3O[C@H](CO)[C@@H](O)[C@H](N)[C@H]3O)[C@H](N)C[C@@H]2N)[C@H](N)C[C@@H]1O [Tobramycin] | 202.65 Å² | 203.66 Å²
19 | O=P(OCCCl)(OCCCl)OCCCl [Tris(2-chloroethyl) phosphate] | 151.08 Å² | –
20 | C[C@H]1O[C@@H](O[C@@H]2[C@@H](O)[C@H](O)[C@@H](CO)O[C@H]2c2c(O)cc(O)c3c(=O)cc(-c4ccc(O)cc4)oc23)[C@@H](O)[C@@H](O)[C@@H]1O [Vitexin-2''-O-rhamnoside] | 221.54 Å² | 227.62 Å²
21 | CC(=O)/C=C/c1ccccc1 [trans-4-phenylbut-3-en-2-one] | 131.24 Å² | –
22 | COc1ccc(C=Cc2cc(OC)cc(=O)o2)cc1 [yangonin] | 163.31 Å² | –

More lines, now with the values ahead:

Row | collision cross section (ion adduct: [M+H]+) | collision cross section (ion adduct: [M-H]-) | SMILES
23 | 154.23 Å² | – | C=C1C(=O)O[C@H]2[C@H]1CC/C(C)=C\CC[C@@]1(C)O[C@@H]21 [Parthenolide]
24 | 138.73 Å² | – | C=C(C)C1CC=C(C=NO)CC1 (centres undefined) [Perillartine]
25 | 177.2 Å² | – | O=C(/C=C/C=C/c1ccc2c(c1)OCO2)N1CCCCC1 [Piperine]
26 | 179.46 Å² | – | COc1cc(/C=C/C(=O)N2CCC=CC2=O)cc(OC)c1OC [Piperlongumine]
27 | 185.04 Å² | 191.16 Å² | C[C@]12C=CC(=O)C=C1CC[C@@H]1[C@@H]2C(=O)C[C@@]2(C)[C@H]1CC[C@]2(O)C(=O)CO [Prednisone]
28 | 235.37 Å² | 235.5 Å² | COc1ccc(-c2cc(=O)c3c(O)cc(O)c(-c4cc(-c5cc(=O)c6c(O)cc(OC)cc6o5)ccc4OC)c3o2)cc1 [Sciadopitysin]
29 | – | 190.5 Å² | C=C[C@H]1[C@H](O[C@@H]2O[C@H](CO)[C@@H](O)[C@H](O)[C@H]2O)OC=C(C(=O)OC)[C@H]1CC(=O)O [Secoxyloganin]
30 | 211.34 Å² | – | CC(C)=CCCC1(C)CCC2(C)C3CCC4(C)C(C)C(=O)CCC4C3(C)CCC2(C)C1 (centres undefined) [Shionone]
31 | 184.69 Å² | – | Nc1ccc(S(=O)(=O)[N-]c2cnc3ccccc3n2)cc1.[Na+] [Sulfaquinoxaline sodium]
32 | – | 148.59 Å² | COc1cc(C(=O)O)cc(OC)c1O [Syringic acid]
33 | – | 281.46 Å² | C=CC[C@@H]1/C=C(/C)C[C@H](C)C[C@H](OC)[C@H]2O[C@@](O)(C(=O)C(=O)N3CCCC[C@H]3C(=O)O[C@H](/C(C)=C/[C@@H]3CC[C@@H](O)[C@H](OC)C3)[C@H](C)[C@@H](O)CC1=O)[C@H](C)C[C@@H]2OC [Tacrolimus]
34 | 152.03 Å² | – | Cn1c(=O)c2c(ncn2CC(=O)O)n(C)c1=O [Theophylline-7-acetic acid]
35 | 137.12 Å² | – | Cn1c(=O)c2[nH]cnc2n(C)c1=O [Theophylline]
36 | 215.34 Å² | 215.68 Å² | Cn1cncc1[C@@](N)(c1ccc(Cl)cc1)c1ccc2c(c1)c(-c1cccc(Cl)c1)cc(=O)n2C [Tipifarnib]
37 | 173.83 Å² | 178.67 Å² | O=C(Nc1ccc(Cl)cc1)Nc1ccc(Cl)c(Cl)c1 [Triclocarban]
38 | 130 Å² | 131.83 Å² | CCC(=O)c1ccc(O)cc1 [Vanatone]
39 | 167.93 Å² | 168.67 Å² | COc1cc(O)c2c(c1)oc(=O)c1c3cc(O)c(O)cc3oc21 [Wedelolactone]
40 | – | 146.57 Å² | COc1cc(CCC(C)=O)ccc1O [Zingerone]
